Patent US7498358B2, “Human ADAM-10 inhibitors” (Exelixis, Inc., priority 2001, dated 2009)
Like-named read-outs stand apart in the source and are kept apart here.

How the values were obtained:
various metalloproteases [1] = test: in vitro inhibition of various metalloproteases (Table 4); format: biochemical; details: Table 4, in vitro
Protocol: (§1) Inhibition is indicated as IC50 with the following key: A=IC50 less than 50 nM, B=IC50 greater than 50 nM, but less than 1000 nM, C=IC50 greater than […], but less than 20,000 nM, and D=IC50 greater than 20,000 nM.

hADAM-10 = target: T1, hADAM-10 (UniProt O14672); test: ADAM-10 enzyme assay: cleavage of fluorogenic 10-residue peptide (DABCYL/EDANS); format: biochemical, human; details: Table 4, in vitro
T1 sequence (O14672 1-748): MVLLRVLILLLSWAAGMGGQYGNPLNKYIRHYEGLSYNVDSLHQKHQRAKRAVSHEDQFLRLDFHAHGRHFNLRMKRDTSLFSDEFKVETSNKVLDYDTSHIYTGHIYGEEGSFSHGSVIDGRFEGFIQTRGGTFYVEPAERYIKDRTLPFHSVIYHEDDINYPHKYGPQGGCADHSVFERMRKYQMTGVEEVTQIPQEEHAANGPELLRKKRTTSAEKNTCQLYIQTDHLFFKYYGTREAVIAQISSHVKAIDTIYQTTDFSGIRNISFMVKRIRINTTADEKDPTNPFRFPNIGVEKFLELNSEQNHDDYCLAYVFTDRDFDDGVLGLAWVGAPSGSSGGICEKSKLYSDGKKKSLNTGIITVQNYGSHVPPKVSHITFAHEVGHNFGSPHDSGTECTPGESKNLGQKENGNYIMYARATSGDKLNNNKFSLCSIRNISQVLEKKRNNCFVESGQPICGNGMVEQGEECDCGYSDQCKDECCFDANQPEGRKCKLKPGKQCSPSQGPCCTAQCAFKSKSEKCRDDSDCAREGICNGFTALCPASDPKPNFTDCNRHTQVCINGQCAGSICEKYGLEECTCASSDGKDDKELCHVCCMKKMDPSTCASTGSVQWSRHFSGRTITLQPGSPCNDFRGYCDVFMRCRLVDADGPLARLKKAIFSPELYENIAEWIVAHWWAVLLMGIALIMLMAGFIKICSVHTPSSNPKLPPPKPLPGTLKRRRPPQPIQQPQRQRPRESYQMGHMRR
Protocol: mADAM-10 or hADAM-10 activity was measured as the ability to cleave a 10-residue peptide (DABCYL-Leu-Leu-Ala-Gln-Lys-*-Leu-Arg-Ser-Ser-Arg-EDANS). […] Enzyme was diluted to a final active concentration of 5 nM in Buffer A (50 mM HEPES 8.0, 100 mM NaCl, 1 mM CaCl2 and 0.01% NP-40). Serial dilutions for compounds were performed ranging from 100 uM to 0.5 nM using a Beckman Biomek 2000 in polypropylene plates (Greiner). 20 μl of enzyme solution was added to 10 μl of compound in buffer A, and allowed to incubate for 15 min in 384 well black, Greiner, microtiter plates (#781076). 20 μl of substrate (12.5 uM in Buffer A) was then added, resulting in final reaction conditions of 2 nM ADAM-10, 5 μM substrate, and compound concentrations ranging from 20 uM to 0.1 nM. The reaction was incubated for 2 hr at RT, and fluorescence was measured at Ex355, Em460 on a Wallac Victor 2 fluorescence reader. For final analysis of potent inhibitors, a similar reaction was set up with a final active ADAM-10 concentration of 0.1 nM. This reaction was incubated for 16 hr at RT and fluorescence was read using identical conditions.
as §1

various metalloproteases [2] = target: various metalloproteases (Homo sapiens, UniProt P08254); test: in vitro inhibition of various metalloproteases (Table 4); format: biochemical; details: MMP3; Table 4, in vitro
Protocol: as §1

various metalloproteases [3] = target: various metalloproteases (Homo sapiens, UniProt P45452); test: as above; format: biochemical; details: MMP13; Table 4, in vitro
Protocol: as §1

various metalloproteases [4] = target: T2, various metalloproteases (Homo sapiens, UniProt P08253); test: as above; format: biochemical; details: MMP2; Table 4, in vitro
T2 sequence (P08253 110-660): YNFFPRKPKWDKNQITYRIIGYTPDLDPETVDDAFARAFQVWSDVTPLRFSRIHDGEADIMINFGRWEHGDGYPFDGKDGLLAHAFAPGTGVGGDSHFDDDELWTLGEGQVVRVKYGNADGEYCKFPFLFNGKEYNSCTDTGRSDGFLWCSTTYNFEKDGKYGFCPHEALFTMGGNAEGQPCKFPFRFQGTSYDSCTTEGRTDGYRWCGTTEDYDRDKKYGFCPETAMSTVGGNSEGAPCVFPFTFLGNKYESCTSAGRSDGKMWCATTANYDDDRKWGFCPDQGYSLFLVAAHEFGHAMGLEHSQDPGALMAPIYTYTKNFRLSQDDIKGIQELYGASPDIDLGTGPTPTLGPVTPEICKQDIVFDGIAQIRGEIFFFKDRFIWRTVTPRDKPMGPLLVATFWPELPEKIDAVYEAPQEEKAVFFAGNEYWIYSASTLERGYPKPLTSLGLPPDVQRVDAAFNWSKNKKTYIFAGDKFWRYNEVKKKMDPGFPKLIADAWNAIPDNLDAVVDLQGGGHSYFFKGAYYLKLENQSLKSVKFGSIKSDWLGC
Protocol: as §1

Sequence of various metalloproteases (Homo sapiens, UniProt P08254) (P08254 100-477): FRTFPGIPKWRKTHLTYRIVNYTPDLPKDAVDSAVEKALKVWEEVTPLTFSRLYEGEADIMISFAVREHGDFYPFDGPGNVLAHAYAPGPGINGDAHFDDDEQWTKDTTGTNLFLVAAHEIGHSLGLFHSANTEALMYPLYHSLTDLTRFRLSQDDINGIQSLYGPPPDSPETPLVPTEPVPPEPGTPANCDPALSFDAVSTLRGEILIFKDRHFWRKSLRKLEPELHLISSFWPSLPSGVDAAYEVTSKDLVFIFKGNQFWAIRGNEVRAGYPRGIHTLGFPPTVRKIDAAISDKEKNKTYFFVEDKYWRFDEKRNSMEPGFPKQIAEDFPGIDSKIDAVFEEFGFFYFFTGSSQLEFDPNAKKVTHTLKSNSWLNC

Row | Molecule | IC50 (various metalloproteases [1]; MMP1, read-out: MMP1 IC50) [nM] | IC50 (various metalloproteases [1]; MMP2, read-out: MMP2 IC50) [nM] | IC50 (various metalloproteases [1]; MMP3, read-out: MMP3 IC50) [nM] | IC50 (various metalloproteases [1]; MMP13, read-out: MMP13 IC50) [nM] | IC50 (various metalloproteases [1]; TACE, read-out: TACE IC50) [nM] | IC50 (hADAM-10) [nM] | IC50 (various metalloproteases [1]; MMP8, read-out: MMP8 IC50) [nM] | IC50 (various metalloproteases [1]; MMP9, read-out: MMP9 IC50) [nM] | IC50 (various metalloproteases [2]) [nM] | IC50 (various metalloproteases [3]) [nM] | IC50 (various metalloproteases [4]) [nM]
1 | N^6-[(E)-(cyanoimino)(propylamino)methyl]-N^1-hydroxy-N^2-[(4-phenoxyphenyl)sulfonyl]-D-lysinamide [Compound 23] | 50 to 1000 | < 50 | < 50 | < 50 | < 50 | < 50 | – | – | – | – | –
2 | Cc1cc(C)cc(Oc2c(F)cc(S(=O)(=O)NC(C(=O)NO)C3CCNCC3)cc2F)c1 (centres unmarked) [Compound 99, N^2-[({4-[(3,5-dimethylphenyl)oxy]-3,5-difluorophenyl}sulfonyl)amino]-N^1-hydroxy-2-piperidin-4-ylacetamide] | – | < 50 | < 50 | < 50 | – | < 50 | – | – | – | – | –
3 | CC(C)(SCC(=O)N1CCOCC1)[C@@H](NS(=O)(=O)c1cc(F)c(Oc2ccc(Cl)cc2)c(F)c1)C(=O)NO [Compound 91, N^2-({4-[(4-chlorophenyl)oxy]-3,5-difluorophenyl}sulfonyl)-N^1-hydroxy-3-[(2-morpholin-4-yl-2-oxoethyl)thio]-D-valinamide] | – | < 50 | – | – | – | – | – | – | – | – | –
4 | N=C(N)NCCC[C@@H](NS(=O)(=O)c1ccc(Oc2ccccc2)cc1)C(=O)NO [Compound 2, N^1-hydroxy-N^2-[(4-phenoxyphenyl)sulfonyl]-D-argininamide] | 50 to 20000 | < 50 | 50 to 1000 | < 50 | 50 to 1000 | < 50 | < 50 | < 50 | – | – | –
5 | CN(C)CC[C@@H](NS(=O)(=O)c1cc(F)c(Oc2ccc(Cl)cc2)c(F)c1)C(=O)NO [Compound 89, (2R)-N^2-[({4-[(4-chlorophenyl)oxy]-3,5-difluorophenyl}sulfonyl)amino]-4-(dimethylamino)-N^1-hydroxybutanamide] | – | < 50 | 50 to 20000 | 50 to 1000 | – | < 50 | – | – | – | – | –
6 | 3-(1-{(Z)-[(aminocarbonyl)imino][(2-methoxyethyl)amino]methyl}piperidin-4-yl)-N^1-hydroxy-N^2-[(4-phenoxyphenyl)sulfonyl]alaninamide [Compound 44] | < 50 | < 50 | < 50 | < 50 | – | – | – | – | – | – | –
7 | NCCCC[C@@H](NS(=O)(=O)c1ccc(Oc2ccccc2)cc1)C(=O)NO [Compound 13, N^1-hydroxy-N^2-{[4-(phenyloxy)phenyl]sulfonyl}-D-lysinamide] | < 50 | < 50 | – | – | 50 to 1000 | < 50 | – | – | – | – | –
8 | O=C(NO)C(NS(=O)(=O)c1ccc(Oc2ccc(F)cc2)cc1)C1CCNCC1 (centres unmarked) [Compound 97, N^2-[({4-[(4-fluorophenyl)oxy]phenyl}sulfonyl)amino]-N^1-hydroxy-2-piperidin-4-ylacetamide] | – | – | < 50 | < 50 | – | < 50 | – | – | – | – | –

Next, values leading:

Row | IC50 (various metalloproteases [1]; MMP1, read-out: MMP1 IC50) [nM] | IC50 (various metalloproteases [1]; MMP2, read-out: MMP2 IC50) [nM] | IC50 (various metalloproteases [1]; MMP3, read-out: MMP3 IC50) [nM] | IC50 (various metalloproteases [1]; MMP13, read-out: MMP13 IC50) [nM] | IC50 (various metalloproteases [1]; TACE, read-out: TACE IC50) [nM] | IC50 (hADAM-10) [nM] | IC50 (various metalloproteases [1]; MMP8, read-out: MMP8 IC50) [nM] | IC50 (various metalloproteases [1]; MMP9, read-out: MMP9 IC50) [nM] | IC50 (various metalloproteases [2]) [nM] | IC50 (various metalloproteases [3]) [nM] | IC50 (various metalloproteases [4]) [nM] | Molecule
9 | – | – | – | – | – | 50 to 20000 | – | – | – | – | – | Cc1cc(C)cc(Oc2c(F)cc(S(=O)(=O)N[C@@H](CC3CCC(CN)CC3)C(=O)NO)cc2F)c1 (some centres unmarked) [Compound 106, 3-[4-(aminomethyl)cyclohexyl]-N^2-({4-[(3,5-dimethylphenyl)oxy]-3,5-difluorophenyl}sulfonyl)-N^1-hydroxyalaninamide]
10 | 50 to 20000 | – | < 50 | < 50 | < 50 | < 50 | – | – | – | – | – | 3-{1-[(Z)-(cyanoimino)(propylamino)methyl]piperidin-4-yl}-N^1-hydroxy-N^2-[(4-phenoxyphenyl)sulfonyl]alaninamide [Compound 41]
11 | 50 to 20000 | – | 50 to 1000 | < 50 | – | < 50 | – | – | – | – | – | N=C(N)NCCC[C@@H](NS(=O)(=O)c1ccc(Oc2ccc(F)cc2)nc1)C(=O)NO [Compound 68, N^2-({6-[(4-fluorophenyl)oxy]pyridin-3-yl}sulfonyl)-N^1-hydxoxy-D-argininamide]
12 | 50 to 20000 | < 50 | 50 to 1000 | < 50 | – | 50 to 1000 | – | – | – | – | – | N#Cc1ccc(C[C@@H](NS(=O)(=O)c2cc(F)c(Oc3ccc(F)cc3)c(F)c2)C(=O)NO)cc1 [Compound 72, 4-cyano-N^2-({3,5-difluoro-4-[(4-fluorophenyl)oxy]phenyl}sulfonyl)-N^1-hydroxy-D-phenylalaninamide]
13 | – | – | – | – | – | < 50 | – | – | 50 to 1000 | < 50 | < 50 | NCC1CCC(C[C@H](NS(=O)(=O)c2ccc(-c3cccc(F)c3)nc2)C(=O)NO)CC1 (some centres unmarked) [Compound 105, 3-[4-(aminomethyl)cyclohexyl]-N^2-{[6-(3-fluorophenyl)pyridin-3-yl]sulfonyl}-N^1-hydroxyalaninamide]
